Measurements published in EP0316592A2, “3'-Fluoro-2',3'-dideoxyuridine, and its therapeutic application” (Stichting REGA V.Z.W., priority 1987, dated 1989).
Values joined by “and” are separate entries in the source; they are usually repeats but may differ in a detail not shown here. Equal values may be shown once. Read-outs that look alike come from different tables or passages of the source.

How the values were obtained:
HIV = experiment: Inhibition of HIV-induced cytopathogenicity in MT4 cells; type: cell-based; details: for EC50: 50% reduction in the cytopathic effect of HIV for MT4 cells, 5 days, read-out: HIV-induced cyto-pathogenicity ED50; for HIV-induced cyto-pathogenicity S.I.: Selectivity index or ratio of CD50 to ED50, MT4 cells
Protocol: HTLV-IIIB (designated HIV) was derived from a pool of American patients with AIDS, and obtained from the supernatant of HIV-infected H9 cell cultures (see M. Popovic et al, Science 224, 497-500 (1984)).
FddUrd, the unsubstituted analogue and other 3′-fluoro- and 3′-azido-substituted analogues were evaluated for their inhibitory effects on HIV-induced cytopathogenicity in MT4 cells (Table 1, fig. 2).

MT4 cells = experiment: Cytotoxicity for non-infected MT4 cells (viable cell count)
Protocol: Then 100 µl of the infected cell suspension was added to 100 µl of an appropriate dilution of test compound in 200 µ1 wells of a Flat Bottom Microtest III Plate (Falcon, Becton Dickinson, Oxnard, CA, USA) (i.e. 40 CCID₅₀ HIV/200 µ1 well/5 x 10⁴ cells), and further incubated at 37°C in a CO₂-controlled humidified atmosphere.

[1] = test system: Moloney murine sarcoma virus (MSV); experiment: Inhibition of transformation of C3H cells by MSV; type: cell-based; details: for EC50: Moloney murine sarcoma virus, 144 h, 50% reduction of transformation of C3H cells by MSV, 6 days, read-out: MSV-induced cyto-pathogenicity ED50; for MSV-induced cyto-pathogenicity S.I.: Selectivity index or ratio of CD50 to ED50, C3H cells
Protocol: Moloney murine sarcoma virus (MSV) was prepared from tumors induced by in vivo infection of 10 day-old NMRI mice according to the procedure described by De Clercq et al (Proc. Soc. Exp. Biol. Med. 137, 590-594 (1971)).
ddUrd and the substituted pymiridine 2′,3′-dideoxynucleoside analogues were examined for their inhibitory effect on the transformation of mouse embryo C3H fibroblasts by Moloney murine sarcoma virus (MSV).
C3H cells were seeded at 20,000 cells per ml into wells of Costar Tissue Culture Cluster plates (48 wells per plate) and grown to confluency. Cell cultures were then infected by 150 foci-forming units of MSV during 90 min, whereafter the culture medium was replaced by 1 ml fresh medium containing different concentrations of the test compound. After 6 days, the transformation of the cell cultures was examined microscopically.

C3H cells = experiment: Cytotoxicity for C3H cells (alteration of normal cell morphology); type: cell-based, mouse
MOLT/4F CELL DNA = experiment: Incorporation of radiolabelled precursors into Molt/4F cell DNA; type: cell-based, human; details: for IC50: Homo sapiens, Molt/4F cell DNA, 20-24 hours; for stimulatory effect on (5-3H)dCyd incorporation into DNA: as compared to the control
Protocol: The impact of ddUrd and the 3′-fluoro- and 3′-azido-substituted pyrimidine 2′,3′-dideoxynucleoside analogues on cellular DNA biosynthesis was evaluated by monitoring the effect of these compounds on the incorporation of radio- labelled (1′,2′-³H)dUrd (specific radioactivity 27 Ci/mmol), (methyl-³H)dThd (specific radioactivity […]) and (5-³H)dCyd (specific radioactivity 20 Ci/mmol) into DNA of Molt/4F cells.
The incorporation of radiolabelled precursors into Molt/4F cellular DNA was measured in microtest III plates (96 wells) (Flacon) as previously described (J. Balzarini et al, Mol. Pharmacol. 23, 175-181 (1983)). Shortly, to each well of the microplate were added 10⁵ Molt/4F cells and 0.25 µCi of (1′,2′-³H)dUrd, (methyl³H)dThd or (5-³H)dCyd. The cells were allowed to proliferate for 20-24 hours at 37°C in a humidified CO₂-controlled atmosphere. At the end of this incubation period, the contents of the wells (200 µ1) were brought onto 25-mm glass-fibre filters (type A/E, Gelman Instrument Company, Ann Arbor, Mich., USA) and washed twice with cold phosphate-buffered saline, twice with cold 10% trichloroacetic acid (TCA), twice with cold 5% TCA, once with ethanol and once with ether. The filters were then assayed for radioactivity in a toluene-based scintillant.

Molt/4F cells = experiment: Tritium release from (5-3H)dUrd or (5-3H)dCyd in intact Molt/4F cells; type: cell-based; details: Homo sapiens
Protocol: Briefly, 10⁷ Molt/4F cells/ml were preincubated with an appropriate amount of test compound for 15 min at 37°C. After this incubation period, radiolabelled (5-³H)dUrd or (5-³H)dCyd (100 µCi/ml; 0.1 µM) were added, and at various times (0, 15, 30, 45, 60 min), 100 µl of the reaction mixture was withdrawn, and mixed with 500 µl of a cold suspension of carbon black (100 mg/ml) in 5% TCA. After centrifugation at 1000 g for 10 min, the supernatants were analysed for radioactivity.

[2] = biological target: T1, bacterial thymidine phosphorylase (Escherichia coli, UniProt P07650); experiment: Phosphorolytic cleavage by dThd phosphorylase; type: biochemical; details: for susceptibility to phosphorolysis by dThd phosphorylase (in words): purified bacterial dThd phosphorylase; for Initial velocity of phosphorolysis: 25°C, 0.1 M sodium phosphate buffer, pH 7.0, N.D. = not detectable with 25 units of enzyme
T1 construct: purchased Sigma Chemical Co., St. Louis, MO
Protocol: Phosphorolytic cleavage of the test compounds was assessed using purified bacterial dThd phosphorylase (Sigma Chemical Co., St. Louis, MO) with the aid of a Beckman spectrophotometer UV/Vis 5200; the absorbance change during the enzyme reaction was continuously monitored at 25°C at the wavelength where the difference of absorption between the nucleoside and its free base was maximal. The reaction mixtures for all the assays consisted of enzyme and non-satura ting concentrations of nucleoside in 0.1 M sodium phosphate buffer, pH 7.0. The initial velocity of phosphorolysis was expressed as nmol/min/enzyme unit.

[3] = 50% reduction of viable cells in non-infected MT4 cell cultures, 5 days
[4] = alteration of normal cell morphology, C3H cells
[5] = read-out: ID50 (1',2'-3H)dUrd incorporation
[6] = read-out: ID50 (5-3H)dCyd incorporation
[7] = read-out: ID50 (methyl-3H)dThd incorporation
[8] = read-out: ID50 tritium release from (5-3H)dUrd
[9] = read-out: ID50 tritium release from (5-3H)dCyd
[10] = Human immunodeficiency virus 1, MT4, 120 h

T1 sequence (P07650 whole entry): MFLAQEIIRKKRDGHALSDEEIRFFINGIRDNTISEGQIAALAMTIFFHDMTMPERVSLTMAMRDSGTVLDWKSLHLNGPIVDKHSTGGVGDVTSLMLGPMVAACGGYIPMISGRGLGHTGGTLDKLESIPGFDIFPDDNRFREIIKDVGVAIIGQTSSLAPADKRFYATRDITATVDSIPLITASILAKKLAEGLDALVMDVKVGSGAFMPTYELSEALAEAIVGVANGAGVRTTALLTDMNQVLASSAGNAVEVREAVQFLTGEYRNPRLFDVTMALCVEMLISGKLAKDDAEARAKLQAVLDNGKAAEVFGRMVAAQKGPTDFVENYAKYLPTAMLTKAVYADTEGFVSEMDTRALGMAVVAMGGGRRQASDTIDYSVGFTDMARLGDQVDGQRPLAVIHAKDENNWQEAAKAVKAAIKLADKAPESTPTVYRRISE

| SMILES | EC50 (HIV) [µM] | HIV-induced cyto-pathogenicity CD50 (MT4 cells; [3]) [µM] | EC50 [1] [µM] | MSV-induced cyto-pathogenicity CD50 (C3H cells; [4]) [µM] | IC50 (MOLT/4F CELL DNA; [5]) [µM] | IC50 (MOLT/4F CELL DNA; [6]) [µM] | IC50 (MOLT/4F CELL DNA; [7]) [µM] | IC50 (Molt/4F cells; [8]) [µM] | susceptibility to phosphorolysis by dThd phosphorylase (in words) [2] | HIV-induced cyto-pathogenicity S.I. (HIV) | MSV-induced cyto-pathogenicity S.I. [1] | IC50 (Molt/4F cells; [9]) [µM] | EC50 (HIV; [10]) [µM] | also measured |
| --- | --- | --- | --- | --- | --- | --- | --- | --- | --- | --- | --- | --- | --- | --- |
| CCc1cn([C@H]2CC[C@@H](CO)O2)c(=O)[nH]c1=O [ddEtUrd, 2′,3′-Dideoxy-5-ethyluridine] | > 625 | >625 | > 400 | >400 | > 1000 | > 1000 | > 1000 | > 250 | no phosphorolytic cleavage whatsoever |  |  |  |  |  |
| [N-]=[N+]=N[C@H]1C[C@H](n2ccc(=O)[nH]c2=O)O[C@@H]1CO [AzddUrd, 3′-azido-2′,3′-dideoxyuridine] |  | 244 | 15 | >400 | 172 | 725 | > 1000 | 20 |  | 677 | >27 | > 250 |  | fold more effective against HIV replication than the parent compound ddUrd (HIV): 600 fold; EC50 (HIV; Human immunodeficiency virus 1, 120 h): 0.36 µM |
| CCc1cn([C@H]2C[C@H](F)[C@@H](CO)O2)c(=O)[nH]c1=O [FddEtUrd, 3′-fluoro-2′,3′-dideoxy-5-ethyluridine] | 330 | >625 | > 400 | >400 | > 1000 | > 1000 | > 1000 | > 250 | no phosphorolytic cleavage whatsoever | >1.9 |  |  |  |  |
| O=c1ccn([C@H]2CC[C@@H](CO)O2)c(=O)[nH]1 [ddUrd, 2′-3′-dideoxyuridine] | 210 |  | > 400 |  | > 1000 | > 1000 | > 1000 | > 250 |  | > 3 |  | > 250 | > 64 | HIV-induced cyto-pathogenicity CD50 (MT4 cells): >625 µM; MSV-induced cyto-pathogenicity CD50 (C3H cells): >400 µM; Initial velocity of phosphorolysis [2]: 0.270 nmol/min/unit |
| Nc1ccn([C@H]2C[C@H](F)[C@@H](CO)O2)c(=O)n1 [FddCyd, 3′-fluoro-2′,3′-dideoxycytidine] |  | 26 | 284 | >400 | 27.3 | > 1000 | > 1000 |  | totally resistant | 1.6 | > 1.2 |  | 16 | stimulatory effect on (5-3H)dCyd incorporation into DNA (MOLT/4F CELL DNA; at 200 µM): 1.7 fold; stimulatory effect on (5-3H)dCyd incorporation into DNA (MOLT/4F CELL DNA; at 1000 µM): 2 fold |
| O=c1ccn([C@H]2C[C@H](F)[C@@H](CO)O2)c(=O)[nH]1 [FddUrd, 3′-fluoro-2′,3′-dideoxyuridine] |  | 16 | > 400 | >400 | 16 | > 1000 | > 1000 | 126 |  | 400 |  | > 250 | 0.04 | fold more effective against HIV replication than the parent compound ddUrd (HIV): 5000 fold; fold more potent/effective against HIV than AzddUrd (HIV): 9 fold and 10 fold; Initial velocity of phosphorolysis [2]: 0.018 nmol/min/unit |
| Nc1ccn([C@H]2CC[C@@H](CO)O2)c(=O)n1 [ddCyd, 2′,3′-Dideoxycytidine] |  | 40 | 25 | >400 | 32 | > 1000 | 753 |  | totally resistant | 120 | >16 |  | 0.3 | stimulatory effect on (5-3H)dCyd incorporation into DNA (MOLT/4F CELL DNA; at 200 µM): 1.7 fold; stimulatory effect on (5-3H)dCyd incorporation into DNA (MOLT/4F CELL DNA; at 1000 µM): 2 fold |
| CCc1cn([C@H]2C[C@H](N=[N+]=[N-])[C@@H](CO)O2)c(=O)[nH]c1=O [AzddEtUrd, 3′-azido-2′,3′-dideoxy-5-ethyluridine] | 64 | 418 | > 200 | >200 | > 1000 | > 1000 | > 1000 | 51 | no phosphorolytic cleavage whatsoever | 6.5 |  | > 250 | > 64 |  |
